Assay results as given in patent US20100137449A1, “SUBSTITUTED 1,3-CYCLOPENTADIONE MULTI-TARGET PROTEIN KINASE MODULATORS OF CANCER, ANGIOGENESIS AND THE INFLAMMATORY PATHWAYS ASSOCIATED THEREWITH” (METAPROTEOMICS, LLC, priority 2007, published 2010).

What was measured:
Experiment in all cases: KinaseProfiler Assay
[1] = target: ALK(h) (Homo sapiens, UniProt Q9UM73)
[2] = target: PAK3(h) (Homo sapiens, UniProt O75914)
[3] = target: T1, SGK(h) (Homo sapiens, UniProt O00141)
T1 sequence (O00141 1-431): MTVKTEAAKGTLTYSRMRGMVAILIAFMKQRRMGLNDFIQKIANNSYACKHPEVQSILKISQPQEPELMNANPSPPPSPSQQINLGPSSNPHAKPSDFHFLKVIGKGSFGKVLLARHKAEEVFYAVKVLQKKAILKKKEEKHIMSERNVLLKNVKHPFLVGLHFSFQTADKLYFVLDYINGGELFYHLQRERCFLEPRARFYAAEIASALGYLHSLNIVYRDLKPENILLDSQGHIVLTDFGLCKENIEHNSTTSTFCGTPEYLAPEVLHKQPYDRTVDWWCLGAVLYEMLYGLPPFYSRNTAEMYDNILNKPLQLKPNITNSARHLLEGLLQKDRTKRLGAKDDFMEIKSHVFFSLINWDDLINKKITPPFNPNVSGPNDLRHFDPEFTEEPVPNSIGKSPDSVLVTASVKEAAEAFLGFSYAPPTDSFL

[4] = target: Abl(h) (Homo sapiens, UniProt P00519)
Sequence of Abl(h) (P00519 whole entry): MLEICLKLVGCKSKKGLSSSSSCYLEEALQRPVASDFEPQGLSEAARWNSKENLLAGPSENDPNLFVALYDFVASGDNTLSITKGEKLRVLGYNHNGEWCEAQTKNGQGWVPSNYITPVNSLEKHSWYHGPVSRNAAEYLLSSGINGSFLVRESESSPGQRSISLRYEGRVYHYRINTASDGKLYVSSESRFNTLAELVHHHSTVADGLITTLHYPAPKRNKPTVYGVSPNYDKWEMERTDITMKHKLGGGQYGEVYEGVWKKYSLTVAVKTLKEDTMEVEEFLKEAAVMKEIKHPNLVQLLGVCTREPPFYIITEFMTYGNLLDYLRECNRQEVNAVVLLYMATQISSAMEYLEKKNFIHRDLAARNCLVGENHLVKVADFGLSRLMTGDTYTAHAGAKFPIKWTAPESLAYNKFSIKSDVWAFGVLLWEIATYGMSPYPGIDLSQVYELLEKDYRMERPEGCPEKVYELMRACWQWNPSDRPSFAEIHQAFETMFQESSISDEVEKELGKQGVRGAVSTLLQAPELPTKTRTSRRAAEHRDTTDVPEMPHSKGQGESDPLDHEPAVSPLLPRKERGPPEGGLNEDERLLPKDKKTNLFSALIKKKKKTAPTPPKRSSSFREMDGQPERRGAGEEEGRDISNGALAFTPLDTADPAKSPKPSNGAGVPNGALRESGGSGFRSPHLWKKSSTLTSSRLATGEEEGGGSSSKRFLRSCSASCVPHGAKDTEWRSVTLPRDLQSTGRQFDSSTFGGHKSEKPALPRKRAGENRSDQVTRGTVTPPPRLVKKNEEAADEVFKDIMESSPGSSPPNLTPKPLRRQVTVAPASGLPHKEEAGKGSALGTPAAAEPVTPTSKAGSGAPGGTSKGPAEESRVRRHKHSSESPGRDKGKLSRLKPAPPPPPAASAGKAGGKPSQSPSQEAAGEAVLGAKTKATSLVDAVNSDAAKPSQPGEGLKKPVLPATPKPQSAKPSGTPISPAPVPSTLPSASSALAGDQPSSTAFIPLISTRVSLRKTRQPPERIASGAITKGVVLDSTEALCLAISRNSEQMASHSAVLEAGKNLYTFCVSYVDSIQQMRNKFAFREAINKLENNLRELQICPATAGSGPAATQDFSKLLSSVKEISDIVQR

[5] = target: Fer(h) (Homo sapiens, UniProt P16591)
[6] = target: MSSK1(h) (Homo sapiens, UniProt Q9UPE1)
Sequence of MSSK1(h) (Q9UPE1 whole entry): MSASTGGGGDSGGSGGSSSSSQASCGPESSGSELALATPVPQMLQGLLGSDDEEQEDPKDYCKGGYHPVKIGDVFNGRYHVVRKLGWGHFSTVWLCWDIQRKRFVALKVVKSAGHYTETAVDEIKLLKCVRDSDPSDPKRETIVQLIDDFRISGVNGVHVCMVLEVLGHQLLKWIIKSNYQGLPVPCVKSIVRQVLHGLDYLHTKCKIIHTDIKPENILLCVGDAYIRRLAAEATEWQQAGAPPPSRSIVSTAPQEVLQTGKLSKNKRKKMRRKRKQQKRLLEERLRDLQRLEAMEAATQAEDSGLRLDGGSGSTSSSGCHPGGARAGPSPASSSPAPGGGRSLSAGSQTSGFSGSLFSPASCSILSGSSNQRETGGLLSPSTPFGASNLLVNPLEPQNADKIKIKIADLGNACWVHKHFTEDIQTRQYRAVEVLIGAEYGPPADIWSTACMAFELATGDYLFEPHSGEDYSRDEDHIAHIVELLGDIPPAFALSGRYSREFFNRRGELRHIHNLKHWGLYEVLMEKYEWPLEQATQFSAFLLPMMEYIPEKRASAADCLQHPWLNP

[7] = target: CK1γ3(h) (Homo sapiens, UniProt Q9Y6M4)
Sequence of CK1γ3(h) (Q9Y6M4 whole entry): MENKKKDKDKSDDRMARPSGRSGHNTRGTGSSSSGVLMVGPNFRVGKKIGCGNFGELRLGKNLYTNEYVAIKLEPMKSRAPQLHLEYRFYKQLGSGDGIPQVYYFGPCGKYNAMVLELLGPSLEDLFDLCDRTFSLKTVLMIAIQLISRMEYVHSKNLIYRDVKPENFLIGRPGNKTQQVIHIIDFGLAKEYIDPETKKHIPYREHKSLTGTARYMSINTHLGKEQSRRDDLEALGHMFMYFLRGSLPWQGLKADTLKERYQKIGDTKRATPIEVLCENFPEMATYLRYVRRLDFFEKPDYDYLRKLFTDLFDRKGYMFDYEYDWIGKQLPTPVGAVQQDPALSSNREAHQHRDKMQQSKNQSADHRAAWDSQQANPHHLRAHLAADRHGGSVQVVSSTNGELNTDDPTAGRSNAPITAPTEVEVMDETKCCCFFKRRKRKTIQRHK

[8] = target: TLK2(h) (Homo sapiens, UniProt Q86UE8)
Sequence of TLK2(h) (Q86UE8 whole entry): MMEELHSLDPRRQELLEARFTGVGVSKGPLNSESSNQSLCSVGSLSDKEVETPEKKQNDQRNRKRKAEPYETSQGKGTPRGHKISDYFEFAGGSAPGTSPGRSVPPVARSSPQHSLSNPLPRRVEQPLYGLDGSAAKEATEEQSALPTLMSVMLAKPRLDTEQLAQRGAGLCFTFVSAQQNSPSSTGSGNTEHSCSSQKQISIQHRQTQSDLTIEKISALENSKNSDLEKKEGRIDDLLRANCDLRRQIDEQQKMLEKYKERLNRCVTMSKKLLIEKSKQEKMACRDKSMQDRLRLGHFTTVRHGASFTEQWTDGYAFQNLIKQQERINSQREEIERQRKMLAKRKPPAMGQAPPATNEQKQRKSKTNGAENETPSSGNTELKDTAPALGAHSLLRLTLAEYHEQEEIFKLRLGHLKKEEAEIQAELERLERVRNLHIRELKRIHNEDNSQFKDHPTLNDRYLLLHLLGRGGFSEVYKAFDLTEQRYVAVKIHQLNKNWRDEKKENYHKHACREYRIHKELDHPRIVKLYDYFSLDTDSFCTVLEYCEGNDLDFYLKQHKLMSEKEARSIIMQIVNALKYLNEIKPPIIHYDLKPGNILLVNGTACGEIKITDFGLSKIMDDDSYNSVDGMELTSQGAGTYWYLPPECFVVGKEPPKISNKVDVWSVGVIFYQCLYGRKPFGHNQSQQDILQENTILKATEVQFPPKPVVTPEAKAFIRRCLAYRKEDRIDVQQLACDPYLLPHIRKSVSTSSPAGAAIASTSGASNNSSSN

[9] = target: PAK2(h) (Homo sapiens, UniProt Q13177)
Sequence of PAK2(h) (Q13177 whole entry): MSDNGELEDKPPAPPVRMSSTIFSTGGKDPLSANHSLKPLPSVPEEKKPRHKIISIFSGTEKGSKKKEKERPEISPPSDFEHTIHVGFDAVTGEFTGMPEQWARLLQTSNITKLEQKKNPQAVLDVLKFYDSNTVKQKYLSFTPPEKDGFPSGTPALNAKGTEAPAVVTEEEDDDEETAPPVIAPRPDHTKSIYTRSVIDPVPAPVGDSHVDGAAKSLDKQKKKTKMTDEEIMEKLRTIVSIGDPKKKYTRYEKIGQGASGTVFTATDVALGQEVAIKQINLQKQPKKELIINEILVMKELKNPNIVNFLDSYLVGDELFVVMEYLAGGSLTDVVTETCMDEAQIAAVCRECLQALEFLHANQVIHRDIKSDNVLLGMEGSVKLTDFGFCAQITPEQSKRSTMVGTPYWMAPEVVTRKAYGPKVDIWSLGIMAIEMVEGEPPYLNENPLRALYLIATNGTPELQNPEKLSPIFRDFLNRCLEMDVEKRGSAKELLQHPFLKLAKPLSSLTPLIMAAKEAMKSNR

[10] = target: T2, SAPK4(h) (Homo sapiens, UniProt O15264)
T2 sequence (O15264 1-365): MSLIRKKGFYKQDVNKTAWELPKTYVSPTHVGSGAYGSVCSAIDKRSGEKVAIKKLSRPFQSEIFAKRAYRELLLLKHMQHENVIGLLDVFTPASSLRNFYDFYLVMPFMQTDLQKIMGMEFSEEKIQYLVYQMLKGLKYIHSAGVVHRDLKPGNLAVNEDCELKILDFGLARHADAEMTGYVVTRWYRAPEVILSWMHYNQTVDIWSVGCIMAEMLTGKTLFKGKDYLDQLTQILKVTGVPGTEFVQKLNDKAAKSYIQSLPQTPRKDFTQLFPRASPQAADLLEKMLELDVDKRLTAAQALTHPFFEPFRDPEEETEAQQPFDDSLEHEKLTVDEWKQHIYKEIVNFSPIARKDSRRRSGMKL

[11] = target: T3, PrKX(h) (Homo sapiens, UniProt P51817)
T3 sequence (P51817 1-358): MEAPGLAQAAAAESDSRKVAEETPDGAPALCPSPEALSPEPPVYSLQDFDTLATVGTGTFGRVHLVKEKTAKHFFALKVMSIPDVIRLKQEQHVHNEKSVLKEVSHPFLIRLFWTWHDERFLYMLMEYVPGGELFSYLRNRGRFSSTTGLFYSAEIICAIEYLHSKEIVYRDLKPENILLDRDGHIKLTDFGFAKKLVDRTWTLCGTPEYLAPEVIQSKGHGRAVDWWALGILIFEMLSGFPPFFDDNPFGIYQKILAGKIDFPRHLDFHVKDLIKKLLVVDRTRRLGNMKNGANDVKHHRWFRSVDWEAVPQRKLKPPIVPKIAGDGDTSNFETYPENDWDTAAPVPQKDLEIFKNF

[12] = target: NEK7(h) (Homo sapiens, UniProt Q8TDX7)
Sequence of NEK7(h) (Q8TDX7 whole entry): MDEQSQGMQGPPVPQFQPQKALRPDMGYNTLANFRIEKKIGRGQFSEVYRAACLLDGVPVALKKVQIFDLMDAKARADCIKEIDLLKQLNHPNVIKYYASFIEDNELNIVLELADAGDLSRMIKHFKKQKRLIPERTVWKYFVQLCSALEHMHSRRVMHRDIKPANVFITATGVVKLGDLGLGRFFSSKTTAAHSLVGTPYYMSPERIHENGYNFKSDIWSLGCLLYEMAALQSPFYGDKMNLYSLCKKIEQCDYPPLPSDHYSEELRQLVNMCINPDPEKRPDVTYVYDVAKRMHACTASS

[13] = target: Met(h) (Homo sapiens, UniProt P08581)

Sequence of PAK3(h) (O75914 whole entry): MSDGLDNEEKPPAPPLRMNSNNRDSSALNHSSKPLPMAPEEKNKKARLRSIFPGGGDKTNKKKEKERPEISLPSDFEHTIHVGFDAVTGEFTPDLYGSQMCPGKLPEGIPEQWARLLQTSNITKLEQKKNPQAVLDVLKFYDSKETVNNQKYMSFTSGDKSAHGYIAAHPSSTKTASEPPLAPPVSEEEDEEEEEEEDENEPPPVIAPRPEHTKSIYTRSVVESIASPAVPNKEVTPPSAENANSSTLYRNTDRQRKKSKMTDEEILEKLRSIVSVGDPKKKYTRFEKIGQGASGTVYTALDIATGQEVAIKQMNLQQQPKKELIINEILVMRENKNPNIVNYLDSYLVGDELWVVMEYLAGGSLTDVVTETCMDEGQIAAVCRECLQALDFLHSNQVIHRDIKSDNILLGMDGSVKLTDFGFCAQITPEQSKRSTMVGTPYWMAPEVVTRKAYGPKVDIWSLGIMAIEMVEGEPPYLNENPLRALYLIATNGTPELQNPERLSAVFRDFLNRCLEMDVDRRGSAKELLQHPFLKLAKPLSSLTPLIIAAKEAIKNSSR

Question: What does the source list for `CC(C)CCC(=O)[C@]1(O)C(O)=C(C(=O)C(C)C)C(=O)[C@H]1CCC(C)C` [TH2, tetrahydroiso-cohumulone]?
Answer: kinase inhibition ([1]; 1 μg/ml): 80% of control; kinase inhibition ([1]; 5 μg/ml): 59% of control; kinase inhibition ([1]; 25 μg/ml): 21% of control; kinase inhibition ([1]; 50 μg/ml): 21% of control; kinase inhibition ([1]; 100 μg/ml): 23% of control; kinase inhibition ([2]; 1 μg/ml): 103% of control; kinase inhibition ([2]; 5 μg/ml): 102% of control; kinase inhibition ([2]; 25 μg/ml): 49% of control; kinase inhibition ([2]; 50 μg/ml): 47% of control; kinase inhibition ([2]; 100 μg/ml): 40% of control; kinase inhibition ([3]; 1 μg/ml): 106% of control; kinase inhibition ([3]; 5 μg/ml): 96% of control; kinase inhibition ([3]; 25 μg/ml): 97% of control; kinase inhibition ([3]; 50 μg/ml): 92% of control; kinase inhibition ([3]; 100 μg/ml): 76% of control; kinase inhibition ([4]; 1 μg/ml): 92% of control; kinase inhibition ([4]; 5 μg/ml): 87% of control; kinase inhibition ([4]; 25 μg/ml): 70% of control; kinase inhibition ([4]; 50 μg/ml): 64% of control; kinase inhibition ([4]; 100 μg/ml): 40% of control; kinase inhibition ([5]; 1 μg/ml): 110% of control; kinase inhibition ([5]; 5 μg/ml): 102% of control; kinase inhibition ([5]; 25 μg/ml): 104% of control; kinase inhibition ([5]; 50 μg/ml): 91% of control; kinase inhibition ([5]; 100 μg/ml): 88% of control; kinase inhibition ([6]; 1 μg/ml): 105% of control; kinase inhibition ([6]; 5 μg/ml): 84% of control; kinase inhibition ([6]; 25 μg/ml): 43% of control; kinase inhibition ([6]; 50 μg/ml): 50% of control; kinase inhibition ([6]; 100 μg/ml): 39% of control; kinase inhibition ([7]; 1 μg/ml): 96% of control; kinase inhibition ([7]; 5 μg/ml): 91% of control; kinase inhibition ([7]; 25 μg/ml): 83% of control; kinase inhibition ([7]; 50 μg/ml): 43% of control; kinase inhibition ([7]; 100 μg/ml): 34% of control; kinase inhibition ([8]; 1 μg/ml): 98% of control; kinase inhibition ([8]; 5 μg/ml): 89% of control; kinase inhibition ([8]; 25 μg/ml): 106% of control; kinase inhibition ([8]; 50 μg/ml): 94% of control; kinase inhibition ([8]; 100 μg/ml): 98% of control; kinase inhibition ([9]; 1 μg/ml): 116% of control; kinase inhibition ([9]; 5 μg/ml): 110% of control; kinase inhibition ([9]; 25 μg/ml): 107% of control; kinase inhibition ([9]; 50 μg/ml): 101% of control; kinase inhibition ([9]; 100 μg/ml): 96% of control; kinase inhibition ([10]; 1 μg/ml): 114% of control; kinase inhibition ([10]; 5 μg/ml): 118% of control; kinase inhibition ([10]; 25 μg/ml): 116% of control; kinase inhibition ([10]; 50 μg/ml): 121% of control; kinase inhibition ([10]; 100 μg/ml): 109% of control; kinase inhibition ([11]; 1 μg/ml): 101% of control; kinase inhibition ([11]; 5 μg/ml): 103% of control; kinase inhibition ([11]; 25 μg/ml): 98% of control; kinase inhibition ([11]; 50 μg/ml): 88% of control; kinase inhibition ([11]; 100 μg/ml): 66% of control; kinase inhibition ([12]; 1 μg/ml): 103% of control; kinase inhibition ([12]; 5 μg/ml): 107% of control; kinase inhibition ([12]; 25 μg/ml): 98% of control; kinase inhibition ([12]; 50 μg/ml): 95% of control; kinase inhibition ([12]; 100 μg/ml): 84% of control; kinase inhibition ([13]; 1 μg/ml): 114% of control; kinase inhibition ([13]; 5 μg/ml): 113% of control; kinase inhibition ([13]; 25 μg/ml): 97% of control; kinase inhibition ([13]; 50 μg/ml): 83% of control; kinase inhibition ([13]; 100 μg/ml): 61% of control
